This series has as its system human PKK mRNA. The series is described as follows: Antisense inhibition of human PKK mRNA in HepaRG cells, 5,000 nM (Example 2). Type of series: cell-based. In a few lines: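 Percent inhibition of PKK mRNA is relative to untreated control, with qRT-PCR (probe set RTS3454) values adjusted to total RNA by RIBOGREEN. Oligonucleotides, fully phosphorothioate 2′-MOE gapmers, were delivered at 5,000 nM by electroporation into 20,000 HepaRG cells/well for about 24 h.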

Setting [1] is: Table 9 experiment, HepaRG cells, 20,000 cells per well, electroporation with 5,000 nM antisense oligonucleotide, approx. 24 hours, PKK mRNA by RT-PCR (RTS3454), relative to untreated control cells.
[2] abbreviates: Table 10 experiment, HepaRG cells, 20,000 cells per well, electroporation with 5,000 nM antisense oligonucleotide, approx. 24 hours, PKK mRNA by RT-PCR (RTS3454), relative to untreated control cells.
[3] abbreviates: HepaRG cells, 5,000 nM antisense oligonucleotide, 5-10-5 gapmers, Table 16.
Where [4] appears, read: HepaRG cells, electroporation, 5,000 nM antisense oligonucleotide, approx. 24 hours, primer probe set RTS3454, relative to untreated control cells, Table 11.
[5] abbreviates: HepaRG cells, electroporation, 5,000 nM antisense oligonucleotide, approx. 24 hours, primer probe set RTS3454, relative to untreated control cells, Table 12.
[6] abbreviates: HepaRG cells, electroporation with 5,000 nM antisense oligonucleotide, approximately 24 hours, PKK mRNA by RT-PCR (RTS3454), relative to untreated control cells, Table 6 experiment.
Where [7] appears, read: HepaRG cells, electroporation with 5,000 nM antisense oligonucleotide, approximately 24 hours, PKK mRNA by RT-PCR (RTS3454), relative to untreated control cells, Table 5 experiment.
The mark [8] stands for this setting: Table 7, HepaRG cells, electroporation with 5,000 nM antisense oligonucleotide, approx. 24 hours, PKK mRNA by RT-PCR (RTS3454), relative to untreated control cells.
The mark [9] stands for this setting: human PKK mRNA, HepaRG cells, 5,000 nM antisense oligonucleotide, Table 18.
Setting [10] is: human PKK mRNA in HepaRG cells, 5-10-5 gapmers, Table 14.
Where [11] appears, read: Table 8, HepaRG cells, electroporation with 5,000 nM antisense oligonucleotide, approx. 24 hours, PKK mRNA by RT-PCR (RTS3454), relative to untreated control cells.

Strand notation (5' to 3'): a small letter for the sugar, then the base; units joined by * are phosphorothioate-linked, units joined directly phosphodiester-linked; [ ] holds rarer units or linkages, { } end groups; capitals alone tell only the bases. e = 2'-O-(2-methoxyethyl) (MOE); [5mC] = 5-methylcytosine; d = 2'-deoxy (DNA)

Regarding “546352 (antisense e[5mC]*eA*e[5mC]*e[5mC]*eA*dG*dG*dT*dT*dG*d[5mC]*dT*d[5mC]*d[5mC]*d[5mC]*eT*eG*e[5mC]*eG*eG) [compound 546352]”, the “% inhibition” value is, setting by setting: under setting [1], 75%; under setting [2], 74%.

“547732 (eA*eG*eG*eA*eT*dT*dG*dG*dT*dG*dG*dT*dG*dG*dG*eA*eT*eT*eG*eG; antisense) [compound 547732]”: the “% inhibition” value (HepaRG cells, 5,000 nM antisense oligonucleotide, 5-10-5 gapmers, Table 17) was found to be 0%.

For “547688 (antisense e[5mC]*eA*e[5mC]*eT*eG*dT*d[5mC]*d[5mC]*dT*dA*dT*dA*dA*d[5mC]*dT*eA*eT*eA*eT*e[5mC]) [compound 547688]”, the “% inhibition” value under setting [3] was 47%.

Turning to “546356 (antisense eT*e[5mC]*e[5mC]*eA*eG*dT*d[5mC]*d[5mC]*dA*dT*dG*dT*dA*d[5mC]*dT*e[5mC]*eA*eG*e[5mC]*eG) [compound 546356]”, the “% inhibition” value under setting [4] is 60%.

Regarding “547529 (antisense eA*e[5mC]*eA*e[5mC]*eA*d[5mC]*dA*dG*dT*d[5mC]*dA*dT*dG*dG*dA*eG*eA*eT*e[5mC]*eT) [compound 547529]”, under setting [5], the “% inhibition” value is listed as 49%.

Take “547695 (antisense eA*e[5mC]*eT*eG*eT*d[5mC]*d[5mC]*dT*dA*dT*dA*dA*d[5mC]*dT*dA*eT*eT*eA*e[5mC]*eA) [compound 547695]”: the “% inhibition” value under setting [3] is reported as 31%.

Regarding “547356 (eT*eA*eA*eT*eA*dG*dG*d[5mC]*dA*dA*dT*dT*dG*dT*dT*e[5mC]*e[5mC]*eG*eG*eT; antisense) [compound 547356]”, the “% inhibition” value under setting [6] was found to be 83%.

With “547679 (antisense eT*eG*eT*eA*e[5mC]*d[5mC]*dT*dA*dT*dA*dT*d[5mC]*dA*d[5mC]*dT*eG*eT*eA*eA*e[5mC]) [compound 547679]”, the “% inhibition” value under setting [3] is 28%.

Take “547311 (antisense e[5mC]*eA*e[5mC]*eT*eA*dT*d[5mC]*dT*dT*dT*d[5mC]*dA*dA*dG*dA*eA*eG*e[5mC]*eA*eA) [compound 547311]”: under setting [7], the “% inhibition” value is 71%.

As for “547382 (e[5mC]*eT*eT*eT*eG*dT*dG*dA*d[5mC]*dT*d[5mC]*dG*dA*dT*dT*eT*eT*e[5mC]*e[5mC]*eA; antisense) [compound 547382]”, the “% inhibition” value under setting [8] is 62%.

On to “548772 (antisense eT*eA*eT*eA*dA*d[5mC]*dA*dG*dT*dA*dT*d[5mC]*dA*e[5mC]*eT*eG*eT) [compound 548772]”, for which, under setting [9], the “% inhibition” value was 0%.

Take “546882 (eT*eA*eG*eT*eT*dT*d[5mC]*d[5mC]*dT*dA*dT*dA*dA*d[5mC]*dA*eG*eT*eA*eT*e[5mC]; antisense) [compound 546882]”: the “% inhibition” value under setting [10] is 24%.

For “546367 (antisense eA*eA*eA*eA*eA*dT*dT*dG*d[5mC]*d[5mC]*dT*dA*dG*dA*d[5mC]*eT*e[5mC]*eT*eG*eG) [compound 546367]”, the “% inhibition” value under setting [4] is 61%.

In the case of “547440 (antisense eT*e[5mC]*e[5mC]*eT*eA*dT*dG*dA*dG*dT*dG*dA*d[5mC]*d[5mC]*d[5mC]*eT*e[5mC]*e[5mC]*eA*e[5mC]) [compound 547440]”, the “% inhibition” value under setting [11] was 67%.

Consider “546222 (antisense eG*eG*eG*eT*eG*dA*dT*dA*dG*dG*dT*dG*d[5mC]*dA*dG*eA*eT*eG*eG*eT) [compound 546222]”, for which the “% inhibition” value under setting [8] is reported as 12%.

Consider “547415 (eT*e[5mC]*eT*eG*eG*dG*dA*dG*dT*dA*dA*dA*dG*dA*dA*eT*eA*eA*eG*eT; antisense) [compound 547415]”, for which the “% inhibition” value under setting [11] is 71%.

As to “546874 (eA*eT*eA*eA*e[5mC]*dA*dA*dT*dA*dT*d[5mC]*dA*d[5mC]*dT*dG*eT*eA*e[5mC]*e[5mC]*eT; antisense) [compound 546874]”, the “% inhibition” value under setting [10] was found to be 68%.

For the substance “546866 (eG*eT*eT*eT*e[5mC]*d[5mC]*dT*dA*dT*dA*dA*d[5mC]*dT*dA*dT*eA*eA*e[5mC]*eA*eA; antisense) [compound 546866]”, the “% inhibition” value under setting [10] was determined as 35%.

For the substance “547631 (antisense e[5mC]*eA*e[5mC]*eT*eG*dT*d[5mC]*d[5mC]*dT*dA*dT*dA*dT*d[5mC]*dA*e[5mC]*eT*e[5mC]*eT*eA) [compound 547631]”, under “human PKK mRNA, HepaRG cells, 5-10-5 motif oligonucleotides targeting SEQ ID NO: 1 and 10”, the “% inhibition” value came to 85%.

On to “546184 (antisense e[5mC]*eA*eA*eG*e[5mC]*dA*d[5mC]*dT*dT*dA*dT*dT*dT*dG*dA*eT*eG*eA*e[5mC]*e[5mC]) [compound 546184]”, for which the “% inhibition” value under setting [6] amounted to 65%.

Regarding “546136 (eG*eG*eA*eG*eG*dT*dG*dA*dG*dT*d[5mC]*dT*d[5mC]*dT*dT*eG*eT*e[5mC]*eA*e[5mC]; antisense) [compound 546136]”, the “% inhibition” value under setting [7] is reported as 86%.

As to “546234 (e[5mC]*e[5mC]*eA*eG*eA*dT*dA*dT*dG*dG*dT*dG*dT*dT*dT*eT*e[5mC]*eT*eT*eG; antisense) [compound 546234]”, the “% inhibition” value under setting [8] is recorded as 69%.

Turning to “547540 (antisense eT*eT*eG*eT*eG*dT*dG*dG*d[5mC]*d[5mC]*d[5mC]*dT*d[5mC]*dT*dT*eA*eA*eG*eT*e[5mC]) [compound 547540]”, the “% inhibition” value under setting [5] is recorded as 44%.

As for “546426 (eT*e[5mC]*eT*e[5mC]*eT*dG*dG*dT*d[5mC]*dA*dA*dT*d[5mC]*dT*dG*eA*e[5mC]*eT*eA*eG; antisense) [compound 546426]”, under setting [5], the “% inhibition” value is on record as 49%.

Take “548723 (DNA e[5mC]*eA*e[5mC]*dT*dG*dT*dA*d[5mC]*dT*dA*dG*dT*dT*eT*e[5mC]*e[5mC]*eT; antisense) [compound 548723]”: the “% inhibition” value (HepaRG cells, 5,000 nM antisense oligonucleotide, human PKK mRNA, Table 18) is given as 62%.

As for “546461 (eA*eT*eG*eT*eT*dT*dA*dT*dT*dG*dT*dA*dG*d[5mC]*d[5mC]*eA*eT*eA*e[5mC]*eA; antisense) [compound 546461]”, the “% inhibition” value under setting [5] turned out to be 53%.

Take “547419 (e[5mC]*eT*eT*eA*eA*dG*dA*dA*dA*d[5mC]*dA*d[5mC]*dT*dT*dA*e[5mC]*eA*e[5mC]*eT*eT; antisense) [compound 547419]”: under setting [11], the “% inhibition” value was 51%.

As for “546224 (antisense eT*eA*eG*eA*eA*dT*dG*dT*dA*dA*dA*dG*dA*dA*dG*eA*eG*eG*e[5mC]*eA) [compound 546224]”, the “% inhibition” value under setting [8] was 65%.

Consider “546868 (eT*eA*e[5mC]*e[5mC]*eT*dA*dT*dA*dA*d[5mC]*dT*d[5mC]*dT*dA*dA*e[5mC]*eA*eG*eT*eA; antisense) [compound 546868]”, for which the “% inhibition” value under setting [10] was found to be 51%.

Take “546192 (antisense eA*eA*eT*eT*eG*dA*d[5mC]*dT*d[5mC]*d[5mC]*dT*d[5mC]*dT*d[5mC]*dA*eT*eA*eT*e[5mC]*eA) [compound 546192]”: the “% inhibition” value under setting [6] is on record as 51%.

Turning to “546211 (antisense eG*eG*e[5mC]*eA*eA*d[5mC]*d[5mC]*dA*dA*dT*dT*dT*d[5mC]*dT*dG*eA*eA*eA*eG*eG) [compound 546211]”, the “% inhibition” value under setting [6] is on record as 42%.

“546374 (antisense e[5mC]*e[5mC]*eA*eG*eG*d[5mC]*dT*d[5mC]*dA*dG*dA*dA*dT*dT*dT*eG*eA*e[5mC]*eT*eT) [compound 546374]”: the “% inhibition” value under setting [4] was determined as 50%.

For the substance “546183 (antisense e[5mC]*eA*e[5mC]*eT*eT*dA*dT*dT*dT*dG*dA*dT*dG*dA*d[5mC]*e[5mC]*eA*e[5mC]*eA*eT) [compound 546183]”, the “% inhibition” value under setting [6] is 69%.

As to “546317 (antisense eA*eG*eG*eA*eG*d[5mC]*d[5mC]*dT*dG*dG*dA*dG*dT*dT*dT*eT*eA*eT*e[5mC]*eA) [compound 546317]”, the “% inhibition” value is, setting by setting: under setting [1], 12%; under setting [2], 31%.

For the substance “547518 (antisense eT*e[5mC]*e[5mC]*eT*eT*dA*dG*dG*dA*dT*dG*d[5mC]*dA*dA*dA*eG*eA*eA*eG*eA) [compound 547518]”, the “% inhibition” value under setting [4] turned out to be 51%.

Turning to “546392 (eG*eA*e[5mC]*e[5mC]*eT*d[5mC]*dG*d[5mC]*dA*dT*dT*dG*dT*d[5mC]*dA*eG*e[5mC]*e[5mC]*e[5mC]*e[5mC]; antisense) [compound 546392]”, under setting [4], the “% inhibition” value stood at 72%.

On to “546391 (eG*e[5mC]*eA*eT*eT*dG*dT*d[5mC]*dA*dG*d[5mC]*d[5mC]*d[5mC]*d[5mC]*dT*eG*eG*eT*eT*eA; antisense) [compound 546391]”, for which the “% inhibition” value under setting [4] is 54%.

Regarding “548750 (antisense e[5mC]*eT*eG*eT*dA*d[5mC]*dT*dA*dG*dT*dT*dT*d[5mC]*d[5mC]*eT*eA*eT*eA) [compound 548750]”, the “% inhibition” value under setting [9] is 62%.

With “547434 (eA*eG*eA*eG*eT*dT*dT*dG*dT*dT*d[5mC]*d[5mC]*dT*d[5mC]*d[5mC]*eA*eA*e[5mC]*eA*eA; antisense) [compound 547434]”, under setting [11], the “% inhibition” value was determined as 54%.

For the substance “546320 (antisense eG*eG*eT*eA*eG*dG*d[5mC]*dA*dT*dA*dT*dT*dG*dG*dT*eT*eT*eT*eT*eG) [compound 546320]”, the “% inhibition” value runs as follows: under setting [1], 72%; under setting [2], 69%.

By % inhibition is commonly meant the percentage by which the read-out fell short of the control.
